Data on one compound can be found in paper PMC3117861, “Analysis of Proteasomal Proteolysis during the In Vitro Metacyclogenesis of Trypanosoma cruzi” (PLoS ONE, 2011).

In the experiment the target is T1, 20S proteasome (Trypanosoma cruzi, UniProt V5BU39).
T1 construct: gene TCDM_03188; ATP in assay, so 20S and 26S forms not separated; with Proteasome subunit beta type-1; Proteasome subunit beta type-2; Proteasome subunit beta type-3; Proteasome subunit beta type-4; Proteasome subunit beta type-7; Proteasome subunit alpha type-1; Proteasome subunit alpha type-2; Proteasome subunit alpha type-3; Proteasome subunit alpha type-4; Proteasome subunit alpha type-5; Proteasome subunit alpha type-6; Proteasome subunit alpha type-7
Briefly: fluorimetric peptidase assay in crude extract. The settings on record: read-out: % inhibition at 50 μM (chymotrypsin-like activity). It counts as biochemical.

Where a SMILES comes first, the peptide text is derived from it. The star is where a group is joined. Cbz = O=C(OCc1ccccc1)*

A word on the inhibition: it is the share of the control response that was lost under treatment.

For `CC(C)C[C@@H](C=O)NC(=O)[C@H](CC(C)C)NC(=O)[C@H](CC(C)C)NC(=O)OCc1ccccc1` [MG132] (Cbz-Leu-Leu-Leu-aldehyde), the inhibition at 50 µM turned out to be 95%.
